Measured values reported in patent US20230416247A1, “DRUG-LIKE MOLECULES AND METHODS FOR THE THERAPEUTIC TARGETING OF MICRORNA-21” (University of Washington, priority 2020, published 2023).

Legend:
[1] = system: miR-16, miR-28, miR-182 in gastric (AGS) cells; assay: qRT-PCR of miR-16, miR-28, miR-182 in AGS cells; format: cell-based, human; conditions: 24-72 hours post incubation, vs DMSO
Procedure: Levels of each microRNA were measured at different times post incubation (24-72 hours) by standard qRT-PCR, normalized to internal controls (U6 or U8 snRNA), in both gastric (AGC) and pancreatic (ASPC1) cell lines. Levels of the microRNA are generally the same, within experimental uncertainty, in the absence (DMSO) or presence of compound −0052 (30).
FIGS. 15A-15F show the levels of mature miR-16, miR-28, and miR-182 are not consistently affected by the compounds in both gastric (AGS) and pancreatic (ASPC1) cell lines, over multiple time scales (24-72 hours), relative to control where DMSO was added, but no compound.
Cell line maintenance. Using the Cancer Cell Line Encyclopedia (CCLE), in-house cancer cell lines were screened to identify cancer and tissue types with varying levels of miR-21 expression. Experiments were performed using the human-derived cell lines AGS (gastric cancer) and AsPC-1 (pancreatic cancer). […]
Quantitative real time PCR analysis. […] RNA concentration was assessed with the NanoDrop ND-1000 spectrophotometer (ThermoFisher Scientific). […] Expression of miR-21 was assessed utilizing the TaqMan microRNA assay (Applied Biosystems). […] All experiments were performed in triplicate, with all samples normalized to the internal controls and relative expression levels calculated using the 2^ΔΔCt method.

[2] = system: pre-Let7 processing by Dicer-TRBP; assay: Dicer/TRBP in vitro processing of pre-Let7; format: biochemical, human; conditions: 2 μM compound vs no compound
Procedure: In order to further assess the biochemical activity of our compounds, processing of pre-miR-21 and pre-Let7 by Dicer-TRBP in vitro was compared. FIGS. 9A and 9B show selective response in the rate of processing under early phase reaction conditions, before significant product builds up, for pre-miR21 compared to pre-Let7.
The results are specific to the initial rates (0.25-5 min) of the reaction. […] This is inevitable because Dicer binds the product tightly. This assay and method of inhibiting miR-21 synthesis is different than typical enzymatic assays. First, the small molecule is targeting the substrate of the enzymatic assay. High affinity compounds that change the structure of the substrate may reduce processing but might not inhibit processing completely. Rather, changes in the specificity constant (kcat/Km), are a better measure of small molecule inhibition than traditional Ki's.
Dicer/TRBP. The Dicer/TRBP enzyme complex was expressed and purified using published methods and stored at −80° C. in 20 μL aliquots until needed. Briefly, the gene encoding human full-length Dicer was inserted into a modified pFastBac1 vector (Invitrogen), which has an N-terminal glutathione-S-transferase (GST) tag. […] The clones were transformed into Rosetta 2 cells and the transformants were grown in LB media at 37° C. until the cells reached a density corresponding to an OD reading of 0.8 at 600 nm. […]

| Compound | cellular levels of miR-16, miR-28, miR-182 [1] | DICER/TRBP activity on pre-Let7 [2] |
| --- | --- | --- |
| O=c1[nH]c(Nc2ccc(N3CCNCC3)cn2)nc2cnccc12 [Compound 30] | does not affect cellular levels | – |
| O=c1[nH]c(Nc2ccc(N3CCNCC3)cn2)nc2cccnc12 [Compound 25] | – | no significant difference in activity is observed |
